Measurements reported in US10743813B2, “Diabetes control using postprandial feedback” (priority 2014, dated 2020).

Tests used:
[1] = tested on: Adults with Type 2 Diabetes Mellitus; settings: starting HbA1c below 8; 300 mg/day; as long as 52 weeks; cited from earlier work
subject with T2D [2] = assay: Blood glucose response to exercise in a fasting state; assay type: in vivo, human; settings: 60 mg Orlistat; over fifteen to thirty minutes
Description: A subject with T2D with starting fasting glucose level of about 140 mg/dL to 160 mg/dL and HbA1c of about 8 was treated with Orlistat. In one aspect, the subject with T2D was treated with 60 mg Orlistat and exercised in a fasting state. […] Although not intending to be bound by theory, one factor may be the natural inhibition of gluconeogenesis in the postprandial state. In addition, the release of fatty acids or lack thereof may affect the release of cholecystokinin and other downstream effects and thus account for the synergy between the postprandial state and the Exercise Sensitizers.

subject with T2D [3] = assay: Blood glucose response to postprandial exercise; assay type: in vivo, human
Description: The patient of Example 1 was encouraged to track glucose levels, including postprandial glucose levels, to observe the effect of postprandial exercise and lifestyle changes. To control triglyceridemia they also started over the counter orlistat at a 60 mg dose daily with a daily multi-vitamin supplement and an additional vitamin D supplement. They had discontinued metformin and statins. Instead close monitoring of blood glucose levels was undertaken.
In Example 2, when using orlistat at 60 mg daily, the patient noticed that blood glucose levels reduced to a level of about 90 to 100 mg/dL, which is in the normal range, after a modest meal with a brisk walk after eating. The blood glucose levels stayed below 100 mg/dL for several hours. […] Effectively exercise is contraindicated in standard of care treatments for T2D due to the use of medications that can drive the glucose levels too low.
A subject with T2D with fasting glucose levels of over 140 mg/dL was treated with 60 mg Orlistat. The subject undertook exercise in a postprandial state within about an hour and a half after eating. […]
The subject with T2D was treated with Pioglitazone 15 mg and postprandial exercise but no Exercise Sensitizer or SGLT2 inhibitor. Over twenty minutes of postprandial exercise glucose readings were taken every 5 minutes for fifteen minutes. […]
The subject with T2D was treated with Exercise Sensitizer Colestipol (1 gm dose) and postprandial exercise. Over twenty minutes of postprandial exercise glucose readings were taken every 5 minutes for fifteen minutes. […]
The subject with T2D was treated with Exercise Sensitizer Colestipol (1 gm) before each meal and with 60 mg. of Exercise Sensitizer Orlistat and 100 mg. of Canagliflozin daily. […] Over twenty minutes of postprandial exercise on an elliptical trainer at a resistance setting of 6, glucose readings dropped to about 81 to 84 mg/dL. […]

subject with T2D [4] = assay: Three month treatment with postprandial exercise: fasting glucose, HbA1c, triglycerides, BMI; assay type: in vivo, human; settings: postprandial exercise with orlistat; from over 500 mg/dL
Description: Over three months to speed up the slow progress the subject with T2D with fasting glucose level of about 140 mg/dL and HbA1c of about 7.5 or above was treated with Orlistat at the lowest marketed dose of 60 mg and the lowest dose for either Canafliglozin (100 mg) and Dapagliflozin (5 mg). Postprandial exercise with orlistat reduced triglycerides to about 260 mg/dL from over 500 mg/dL.
An invasive glucose testing meter was used to simulate a post-prandial invasive/noninvasive glucose monitoring device. Specifically a combination of orlistat and a SGLT2 inhibitor (Canafliglozin and Dapagliflozin) was administered. Treatment with orlistat (60 mg) daily alone with […]
The fasting glucose levels changed and continued to decrease overall over the three months.
The fasting glucose levels were obtained using a portable glucose meter while the fasting glucose (again to check the meter and strip accuracy) and HbA1c were determined using laboratory tests that included a lipid panel. […] Also the subject could not be fully compliant—many meals were not followed by exercise. The treatment with Exercise Sensitizer and SGLT2 inhibitor was adhered to strictly. Still, the triglyceride levels dropped to 260 and eventually to about 220 from about 500. […]

In the case of `Cc1ccc([C@@H]2O[C@H](CO)[C@@H](O)[C@H](O)[C@H]2O)cc1Cc1ccc(-c2ccc(F)cc2)s1` [Canagliflozin, (2S,3R,4R,5S,6R)-2-{3-[5-[4-Fluoro-phenyl)-thiophen-2-ylmethyl]-4-methyl-phenyl}-6-hydroxymethyl-tetrahydro-pyran-3,4,5-triol], the “improvement in HbA1c” value [1] is listed as “less than 0.8”.

With `CCCCCCCCCCC[C@@H](C[C@@H]1OC(=O)[C@H]1CCCCCC)OC(=O)[C@H](CC(C)C)NC=O` [Orlistat, (S)—((S)-1-((2S,3S)-3-Hexyl-4-oxooxetan-2-yl)tridecan-2-yl) 2-formamido-4-methylpentanoate] the “blood/plasma glucose level on exercise in a fasting state” value (subject with T2D [2]) was “increased or remained steady in the high range”, the “blood/plasma glucose level after postprandial exercise” value (subject with T2D [3]; 60 mg Orlistat, exercise within about an hour and a half after eating, fasting glucose over 140 mg/dL) was “dropped sharply to the normal range” and the “blood glucose level for several hours after the postprandial walk” value (subject with T2D [3]; orlistat 60 mg daily, several hours) was “below 100 mg/dL”. The triglycerides (subject with T2D [4]) was “about 260 mg/dL”.

For `CCc1ccc(CCOc2ccc(CC3SC(=O)NC3=O)cc2)nc1` (stereo not drawn) [Pioglitazone], the “blood glucose level during postprandial exercise” value (subject with T2D [3]; Pioglitazone 15 mg, at about ten minutes, then leveled off, from about 175 mg/dL) was “about 103 mg/dL”.
